The structures appear in SMILES notation.

The experiment has as its target T1, Corticotropin-releasing factor receptor 1 (Homo sapiens, UniProt P34998).
T1 sequence (P34998 whole entry): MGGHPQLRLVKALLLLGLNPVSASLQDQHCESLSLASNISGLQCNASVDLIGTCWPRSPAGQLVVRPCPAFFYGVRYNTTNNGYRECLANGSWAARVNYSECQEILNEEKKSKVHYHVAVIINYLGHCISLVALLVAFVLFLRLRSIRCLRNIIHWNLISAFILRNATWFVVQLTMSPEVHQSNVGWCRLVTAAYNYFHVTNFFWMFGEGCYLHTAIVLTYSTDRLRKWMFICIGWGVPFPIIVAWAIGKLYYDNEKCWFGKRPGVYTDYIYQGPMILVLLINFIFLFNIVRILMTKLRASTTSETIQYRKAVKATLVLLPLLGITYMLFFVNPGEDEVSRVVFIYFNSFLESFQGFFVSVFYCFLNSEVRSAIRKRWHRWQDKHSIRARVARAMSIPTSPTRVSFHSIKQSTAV
Description: Displacement of [125I]sauvagine from human recombinant CRF1 receptor expressed in CHO cells by SPA. The experiment is classed as cell-based.
By IC50 is commonly meant the concentration needed to halve the response being measured. `Cc1cc(-n2ccc(-c3nccs3)n2)c2c(n1)N(c1ccc(C#N)cc1-c1cccs1)CC2`: the IC50 is 851 nM. Under `COc1ccc(N2CCc3c(-n4ccc(-c5nccs5)n4)cc(C)nc32)c(OC)n1` stands 214 nM; under `Cc1cc(-n2ccc(-c3nccs3)n2)c2c(n1)N(c1ccc(F)cc1[N+](=O)[O-])CC2`, > 10000 nM; under `Cc1cc(-n2ccc(-c3nccs3)n2)c2c(n1)N(c1ccc(Cl)cc1[N+](=O)[O-])CC2`, > 10000 nM. Regarding `COc1ccc(N2CCc3c(-n4ccc(-c5nccs5)n4)cc(C)nc32)c([N+](=O)[O-])c1`, the 50% inhibitory concentration (IC50) is > 10000 nM. Under `Cc1cc(-n2ccc(-c3nccs3)n2)c2c(n1)N(c1ccc(S(C)(=O)=O)cc1S(C)(=O)=O)CC2` stands 3890 nM; under `Cc1cc(-n2ccc(-c3nccs3)n2)c2c(n1)N(c1ccc([N+](=O)[O-])cc1C(F)(F)F)CC2`, 58.9 nM.

As for `Cc1cc(-n2ccc(-c3ccccn3)n2)c2c(n1)N(c1ccc(C#N)cc1Cl)CC2`, the IC50 was 363 nM. As for `Cc1cc(-n2ccc(-c3ccccn3)n2)c2c(n1)N(c1ccc(C#N)cc1C)CC2`, the IC50 was 224 nM. Under `Cc1cc(-n2ccc(-c3nccs3)n2)c2c(n1)N(c1cnc(N(C)C)cc1C)CC2` stands 257 nM; under `Cc1cc(-n2ccc(-c3nccs3)n2)c2c(n1)N(c1ccc(O)cc1C)CC2`, 3470 nM. As for `Cc1cc(-n2ccc(-c3nccs3)n2)c2nc(C(F)(F)F)n(-c3ccc(C(F)(F)F)cc3C(F)(F)F)c2n1`, the concentration for half-maximal inhibition (IC50) is > 10000 nM.

On to `Cc1cc(-n2ccc(-c3nccs3)n2)c2c(n1)N(c1ccc(C#N)cc1C#N)CC2`, for which the IC50 is 7410 nM.

Regarding `COc1ccc(-n2ccc3c(-n4ccc(-c5nccs5)n4)cc(C)nc32)c(C)c1`, the half-inhibitory concentration (IC50) is 427 nM. Regarding `COc1ccc2c(c1)CCN2c1cc(-n2ccc(-c3nccs3)n2)cc(C)n1`, the IC50 was > 10000 nM. As for `Cc1cc(-n2ccc(-c3nccs3)n2)c2[nH]c(=O)n(-c3ccc(C(F)(F)F)cc3C(F)(F)F)c2n1`, the IC50 is 8320 nM.

Turning to `COc1ccc(N2CCc3c(-n4ccc(-c5nccs5)n4)cc(C)nc32)c(C)c1`, the IC50 is 53.7 nM. The figure for `Cc1cc(-n2ccc(-c3nccs3)n2)c2c(n1)N(c1ccc(C(F)(F)F)cc1C(F)(F)F)CC2` is 27.5 nM.

Regarding `COc1ccc(N2CCc3c(-n4ccc(-c5nccs5)n4)cc(C)nc32)cc1`, the IC50 was 8710 nM. The figure for `Cc1cc(-n2ccc(-c3nccs3)n2)c2c(n1)N(c1ccc(C#N)cc1F)CC2` is 2040 nM; for `Cc1cc(-n2ccc(-c3ccccn3)n2)c2c(n1)N(c1ccc(C#N)cc1C(F)(F)F)CC2` it is 93.3 nM; for `CCc1cc(C#N)ccc1N1CCc2c(-n3ccc(-c4nccs4)n3)cc(C)nc21` it is 126 nM. Under `Cc1cc(-n2ccc(-c3nccs3)n2)c2c(n1)N(c1ccc(F)cc1C)CC2` stands 162 nM; under `Cc1cc(-n2ccc(-n3cccn3)n2)c2c(n1)N(c1ccc(C#N)cc1C)CC2`, 316 nM; under `COc1ccc(N2CCc3c(-n4ccc(-c5nccs5)n4)cc(C)nc32)c(Cl)c1`, 56.2 nM.

Consider `Cc1cc(-n2ccc(-n3cccn3)n2)c2c(n1)N(c1ccc(C#N)cc1C(F)(F)F)CC2`, for which the half-inhibitory concentration (IC50) is 145 nM. The figure for `COc1ccc(N2CCc3c(-n4ccc(-c5nccs5)n4)cc(C)nc32)c(OC)c1` is 174 nM; for `Cc1cc(-n2ccc(-c3nccs3)n2)c2nc(C)n(-c3ccc(C(F)(F)F)cc3C(F)(F)F)c2n1` it is > 10000 nM; for `COc1ccc(N2CCc3c(-n4ccc(-c5nccs5)n4)cc(C)nc32)c(C)n1` it is 60.3 nM.

As to `Cc1cc(-n2ccc(-c3nccs3)n2)c2cnn(-c3ccc(C#N)cc3C)c2n1`, the half-inhibitory concentration (IC50) was 2750 nM.

`Cc1cc(-n2ccc(-c3nccs3)n2)c2c(n1)N(c1ccc(C(F)(F)F)cc1C(F)(F)F)S(=O)(=O)C2`: the concentration for half-maximal inhibition (IC50) is > 10000 nM. Under `Cc1cc(-n2ccc(-n3cccn3)n2)c2c(n1)N(c1ccc(C#N)cc1Cl)CC2` stands 115 nM; under `Cc1cc(-n2ccc(-c3nccs3)n2)c2c(n1)N(c1ccc(S(C)(=O)=O)cc1Cl)CC2`, 2340 nM; under `COc1ccc(N2CCc3c(-n4ccc(-c5nccs5)n4)cc(C)nc32)c(C(F)F)c1`, 34.7 nM. Under `Cc1cc(-n2ccc(-c3nccs3)n2)c2c(n1)N(c1ccc(C#N)cc1Cl)CC2` stands 229 nM.

Values taken from ChEMBL document CHEMBL1152302, “Dihydropyrrole[2,3-d]pyridine derivatives as novel corticotropin-releasing factor-1 antagonists: mapping of the receptor binding pocket by in silico docking studies” (J Med Chem, 2008).
